# Test results published in PubChem BioAssay (NCI).
#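 The compound was tested at five concentrations on cells cultured in 96-well plates, with a 48-hour exposure period. The concentration for full growth arrest is given as TGI.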 Where a SMILES comes first, the peptide text is derived from it. [ ]: non-standard residue; d: D form. The star is where a group is joined. Boc = CC(C)(C)OC(=O)*; Lac = C[CH](O)C(=O)O; OBn = c1ccc(CO*)cc1
# What was measured:
# Assay in all cases: NCI tumour cell line growth inhibition, 48 h
# [1] = system: CCRF-CEM leukemia
# [2] = system: HCT-15 colon
# [3] = system: IGROV1 ovarian
# [4] = system: K-562 leukemia
# [5] = system: M14 melanoma
# [6] = system: MOLT-4 leukemia
# [7] = system: NCI-H226 lung
# [8] = system: NCI-H460 lung
# [9] = system: RXF 393 renal
# [10] = system: SK-MEL-28 melanoma
# [11] = system: SK-OV-3 ovarian
# [12] = system: SN12C renal
# [13] = system: UO-31 renal
# [14] = system: DMS 114 small cell lung
# [15] = system: DMS 273 small cell lung
# [16] = system: EKVX NSCLC
# [17] = system: HT29 colon
# [18] = system: SF-539 CNS
# [19] = system: SW-620 colon
# [20] = system: UACC-257 melanoma
Structure (SMILES),TGI [1],TGI [2],TGI [3],TGI [4],TGI [5],TGI [6],TGI [7],TGI [8],TGI [9],TGI [10],TGI [11],TGI [12],TGI [13],TGI [14],TGI [15],TGI [16],TGI [17],TGI [18],TGI [19],TGI [20]
CC(OC(=O)C(Cc1ccccc1)NC(=O)C(Cc1ccccc1)NC(=O)OC(C)(C)C)C(=O)OCc1ccccc1 (stereo not drawn) (Boc-Phe-Phe-[Lac]-OBn; configuration not given here),> 100 µM,> 100 µM,> 100 µM,> 100 µM,> 100 µM,> 100 µM,> 100 µM,> 100 µM,> 100 µM,> 100 µM,> 100 µM,> 100 µM,> 100 µM,–,–,–,–,–,–,–
N/C(=N\N=C/c1ccc(O)c(O)c1O)NO,> 58.1 µM,34.5 µM,> 100 µM,48 µM,–,> 66.6 µM,> 77 µM,32.4 µM,33.5 µM,> 100 µM,> 100 µM,34.9 µM,> 100 µM,54.8 µM,18.5 µM,> 100 µM,35.1 µM,> 100 µM,39.1 µM,> 100 µM
NC(CCCCCCCCCCP(=O)(O)O)C(=O)O (stereo not given),> 100 µM,> 100 µM,> 100 µM,> 100 µM,> 100 µM,> 100 µM,–,> 100 µM,> 100 µM,> 100 µM,> 100 µM,> 100 µM,> 100 µM,–,–,> 100 µM,> 100 µM,> 100 µM,> 100 µM,> 100 µM
CC1(C)CCc2ccc(OCCC(=O)O)cc2O1,> 100 µM,> 100 µM,> 100 µM,> 100 µM,> 100 µM,> 100 µM,> 100 µM,> 100 µM,–,–,> 100 µM,> 100 µM,> 100 µM,> 100 µM,> 100 µM,> 100 µM,> 100 µM,> 100 µM,> 100 µM,–
CCCCCCNC(=O)C(C)C1CCC2(C)C=CC(=O)C(C)=C2C1O (stereo not given),> 100 µM,> 100 µM,> 100 µM,> 100 µM,–,> 100 µM,> 100 µM,> 100 µM,> 100 µM,> 100 µM,> 100 µM,> 100 µM,> 100 µM,> 100 µM,> 100 µM,> 100 µM,> 100 µM,> 100 µM,> 100 µM,> 100 µM
